The supplement of paper PMC10307832

Tests used:
Test in all cases: relative viability (nuclei count vs DMSO), 5 days (fraction); higher = more cells survive
Calu-6 = system: Calu-6
Outline: (§1)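 Lung cancer cell lines in 1536-well plates were dosed by pin tool the day after seeding, either with one drug alone or with a fixed anchor-drug dose plus five library-drug doses (not always all listed) in √10 steps. After 5 days, cells were fixed and their nuclei stained in one step (final 0.05% Triton X-100, 1% formaldehyde, 1 ug/ml Hoechst), then counted on 4× images. Relative viability is the nuclei count in treated wells divided by that in vehicle wells. Values are medians of duplicate plates.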

NCI-H1944 = system: NCI-H1944
Outline: as §1

NCI-H661 = system: NCI-H661
Outline: as §1

SK-LU-1 = system: SK-LU-1
Outline: as §1

IA-LM = system: IA-LM
Outline: as §1

NCI-H1666 = system: NCI-H1666
Outline: as §1

NCI-H1299 = system: NCI-H1299
Outline: as §1

PC-14 = system: PC-14
Outline: as §1

A549 = system: A549
Outline: as §1

EBC-1 = system: EBC-1
Outline: as §1

NCI-H596 = system: NCI-H596
Outline: as §1

NCI-H1703 = system: NCI-H1703
Outline: as §1

Cc1cn(-c2cc(NC(=O)c3ccc(C)c(Nc4nccc(-c5cccnc5)n4)c3)cc(C(F)(F)F)c2)cn1 [Nilotinib] + C[C@@H](Oc1cc(-c2cnn(C3CCNCC3)c2)cnc1N)c1c(Cl)ccc(F)c1Cl [Crizotinib] (partner 1 µM)
relative viability (Calu-6; first compound 0.001 µM): 0.677
relative viability (Calu-6; first compound 0.003162 µM): 0.798
relative viability (Calu-6; first compound 0.01 µM): 1.19
relative viability (Calu-6; first compound 0.03162 µM): 0.548
relative viability (Calu-6; first compound 0.1 µM): 0.637
relative viability (NCI-H1944; first compound 0.001 µM): 1.18
relative viability (NCI-H1944; first compound 0.003162 µM): 1.24
relative viability (NCI-H1944; first compound 0.01 µM): 1.21
relative viability (NCI-H1944; first compound 0.03162 µM): 1.16
relative viability (NCI-H1944; first compound 0.1 µM): 0.939
relative viability (NCI-H661; first compound 0.001 µM): 0.879
relative viability (NCI-H661; first compound 0.003162 µM): 1.12
relative viability (NCI-H661; first compound 0.01 µM): 1.03
relative viability (NCI-H661; first compound 0.03162 µM): 0.945
relative viability (NCI-H661; first compound 0.1 µM): 0.93
relative viability (SK-LU-1; first compound 0.001 µM): 0.893
relative viability (SK-LU-1; first compound 0.003162 µM): 0.888
relative viability (SK-LU-1; first compound 0.01 µM): 0.933
relative viability (SK-LU-1; first compound 0.03162 µM): 0.805
relative viability (SK-LU-1; first compound 0.1 µM): 0.693
relative viability (IA-LM; first compound 0.003162 µM): 0.77
relative viability (IA-LM; first compound 0.01 µM): 0.835
relative viability (IA-LM; first compound 0.03162 µM): 0.637
relative viability (IA-LM; first compound 0.1 µM): 0.659
relative viability (NCI-H1666; first compound 0.001 µM): 0.826
relative viability (NCI-H1666; first compound 0.003162 µM): 0.983
relative viability (NCI-H1666; first compound 0.01 µM): 0.964
relative viability (NCI-H1666; first compound 0.03162 µM): 0.936
relative viability (NCI-H1666; first compound 0.1 µM): 1.11
relative viability (NCI-H1299; first compound 0.001 µM): 0.925
relative viability (NCI-H1299; first compound 0.003162 µM): 1.01
relative viability (NCI-H1299; first compound 0.01 µM): 1.07
relative viability (NCI-H1299; first compound 0.03162 µM): 0.918
relative viability (NCI-H1299; first compound 0.1 µM): 0.969
relative viability (PC-14; first compound 0.001 µM): 0.871
relative viability (PC-14; first compound 0.003162 µM): 0.941
relative viability (PC-14; first compound 0.01 µM): 1.11
relative viability (PC-14; first compound 0.03162 µM): 0.861
relative viability (PC-14; first compound 0.1 µM): 0.945
relative viability (A549; first compound 0.001 µM): 0.916
relative viability (A549; first compound 0.003162 µM): 0.976
relative viability (A549; first compound 0.01 µM): 1.09
relative viability (A549; first compound 0.03162 µM): 0.501
relative viability (A549; first compound 0.1 µM): 0.547
relative viability (EBC-1; first compound 0.001 µM): 0.216
relative viability (EBC-1; first compound 0.003162 µM): 0.202
relative viability (EBC-1; first compound 0.01 µM): 0.174
relative viability (EBC-1; first compound 0.03162 µM): 0.157
relative viability (EBC-1; first compound 0.1 µM): 0.164
relative viability (NCI-H596; first compound 0.001 µM): 0.937
relative viability (NCI-H596; first compound 0.01 µM): 1.07
relative viability (NCI-H596; first compound 0.03162 µM): 0.958
relative viability (NCI-H596; first compound 0.1 µM): 1.1
relative viability (NCI-H1703; first compound 0.003162 µM): 0.403
relative viability (NCI-H1703; first compound 0.01 µM): 0.291
relative viability (NCI-H1703; first compound 0.03162 µM): 0.191
relative viability (NCI-H1703; first compound 0.1 µM): 0.175
